Data from ChEMBL document CHEMBL1201862, “PubChem BioAssay data set” (2004).
Active and inactive are the calls of the source.

Key:
[1] = P. falciparum late gametocyte killing, dose response, luminescence (AID 1117278); assay type: functional, cell-based;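 note: gametocytes exposed to compound for 24 hours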
[2] = Jurkat T cell cytotoxicity, dose response, cytotoxicity control for P. falciparum gametocyte viability project, luminescence (AID 1117277); assay type: functional, cell-based;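 note: potency reflects loss of cellular ATP meaning fewer viable cells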
[3] = molecular target: Ephrin type-A receptor 4 (Mus musculus, UniProt Q03137); assay: inhibitors of EphA4 binding to KYL peptide, primary screen, biochemical, colorimetric, mouse EphA4 (AID 689); assay type: functional
[4] = test system: CHO; assay: cytotoxicity in TLR9-MyD88 CHO cells, dose response, cytotoxicity control for TLR9-MyD88 binding inhibitor project, cell-based, luminescence (AID 588339); assay type: functional, hamster; settings: Cricetulus griseus;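 note: CHO cells stably coexpressing TLR9 and MyD88 fusions from primary screen; compound exposure lasted 48 hours before viability readout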
[5] = molecular target: T1, Corticotropin-releasing factor receptor 2/Corticotropin-releasing factor-binding protein (Homo sapiens, UniProt P24387+Q13324); assay: activators of CRF receptor 2 with binding protein – uHTS hits, confirmation (AID 602473); assay type: functional; settings: read-out: EC50_Mean
T1 sequence (Q13324 whole entry): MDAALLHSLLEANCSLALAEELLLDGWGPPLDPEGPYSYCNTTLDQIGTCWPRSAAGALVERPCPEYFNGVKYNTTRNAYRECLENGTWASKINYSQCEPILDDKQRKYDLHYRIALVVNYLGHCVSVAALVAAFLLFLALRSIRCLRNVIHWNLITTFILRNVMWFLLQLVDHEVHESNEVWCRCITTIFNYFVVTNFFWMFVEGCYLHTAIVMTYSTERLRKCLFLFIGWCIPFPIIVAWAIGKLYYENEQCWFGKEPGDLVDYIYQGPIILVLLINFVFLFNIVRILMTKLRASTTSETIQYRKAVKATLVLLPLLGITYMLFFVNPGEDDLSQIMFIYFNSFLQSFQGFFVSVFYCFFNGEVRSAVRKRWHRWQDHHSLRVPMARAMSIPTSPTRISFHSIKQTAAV
T1 sequence (P24387 whole entry): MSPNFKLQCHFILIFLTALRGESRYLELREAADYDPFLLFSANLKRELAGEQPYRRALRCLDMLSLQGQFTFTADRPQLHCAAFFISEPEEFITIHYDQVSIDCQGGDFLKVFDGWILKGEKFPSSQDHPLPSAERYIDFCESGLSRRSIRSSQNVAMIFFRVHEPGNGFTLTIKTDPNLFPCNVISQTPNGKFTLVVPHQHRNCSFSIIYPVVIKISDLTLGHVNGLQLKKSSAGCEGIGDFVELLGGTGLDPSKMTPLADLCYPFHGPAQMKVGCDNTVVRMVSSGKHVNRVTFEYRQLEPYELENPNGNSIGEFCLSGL

[6] = A cytotoxicity screen of small molecule inhibitors of the PhoP region in Salmonella typhi identified in the primary screen. [Related pubchem assays: 1850, 1864, 1985 ]; assay type: functional
[7] = HEp-2 cell cytotoxicity, dose response, cytotoxicity control for RSV inhibitor project, HTS (AID 2410); assay type: functional; settings: human respiratory syncytial virus
[8] = inhibitors of intracellular T. cruzi replication, confirmation, NIH3T3 host cells, beta-gal luminescence (AID 2044); assay type: functional, cell-based;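 note: intracellular parasites grown in NIH/3T3 mouse fibroblasts as host cells; luminescent beta-galactosidase reporter signal from transgenic T. cruzi replicating inside host cells; inhibitors lower the luminescence signal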
[9] = microbe, parasite or virus in culture; assay type: functional; settings: Mycobacterium tuberculosis
[10] = cytotoxicity toward NIH3T3 fibroblasts, dose response, counter-screen, cell-based, ATP luminescence, mouse fibroblasts (AID 2010); assay type: functional;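 note: cells exposed to compound for about 90 hours before reading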
[11] = molecular target: Disintegrin and metalloproteinase domain-containing protein 17 (Homo sapiens, UniProt P78536); assay: exosite inhibitors of ADAM17, dose response, biochemical (AID 743260)
[12] = ADAM10 protease inhibitors, dose response, selectivity assay for ADAM17 exosite inhibitor project, biochemical, FRET peptide substrate, recombinant human ADAM10 (AID 743259);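 note: ADAM10 enzyme cleaving a FRET peptide substrate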

Sequence of Ephrin type-A receptor 4 (Q03137 whole entry, the tested form may be a part): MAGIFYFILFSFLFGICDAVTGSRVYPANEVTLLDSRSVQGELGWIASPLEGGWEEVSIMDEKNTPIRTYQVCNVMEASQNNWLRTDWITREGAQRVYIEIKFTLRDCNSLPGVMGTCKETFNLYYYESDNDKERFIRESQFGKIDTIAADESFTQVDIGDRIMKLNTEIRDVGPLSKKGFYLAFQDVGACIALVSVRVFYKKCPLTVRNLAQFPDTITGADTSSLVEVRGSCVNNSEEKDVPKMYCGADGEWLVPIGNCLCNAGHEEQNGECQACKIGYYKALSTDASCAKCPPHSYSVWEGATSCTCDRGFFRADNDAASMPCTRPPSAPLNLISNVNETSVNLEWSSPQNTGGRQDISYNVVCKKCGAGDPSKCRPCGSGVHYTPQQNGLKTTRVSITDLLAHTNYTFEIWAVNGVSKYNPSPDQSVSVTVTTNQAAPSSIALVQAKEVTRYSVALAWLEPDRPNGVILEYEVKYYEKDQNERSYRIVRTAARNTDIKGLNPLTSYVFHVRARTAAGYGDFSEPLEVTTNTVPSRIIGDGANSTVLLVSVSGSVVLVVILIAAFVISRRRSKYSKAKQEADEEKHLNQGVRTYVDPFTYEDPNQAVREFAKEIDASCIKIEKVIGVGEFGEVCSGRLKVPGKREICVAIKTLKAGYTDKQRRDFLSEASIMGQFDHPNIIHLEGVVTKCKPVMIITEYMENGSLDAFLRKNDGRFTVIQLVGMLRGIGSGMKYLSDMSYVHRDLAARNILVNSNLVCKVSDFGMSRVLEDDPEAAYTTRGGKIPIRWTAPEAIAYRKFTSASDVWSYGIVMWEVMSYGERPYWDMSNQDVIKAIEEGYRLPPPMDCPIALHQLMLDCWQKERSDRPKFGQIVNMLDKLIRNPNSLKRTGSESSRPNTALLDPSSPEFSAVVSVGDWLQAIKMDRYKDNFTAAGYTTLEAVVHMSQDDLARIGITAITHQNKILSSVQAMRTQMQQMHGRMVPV
Sequence of Disintegrin and metalloproteinase domain-containing protein 17 (P78536 whole entry, the tested form may be a part): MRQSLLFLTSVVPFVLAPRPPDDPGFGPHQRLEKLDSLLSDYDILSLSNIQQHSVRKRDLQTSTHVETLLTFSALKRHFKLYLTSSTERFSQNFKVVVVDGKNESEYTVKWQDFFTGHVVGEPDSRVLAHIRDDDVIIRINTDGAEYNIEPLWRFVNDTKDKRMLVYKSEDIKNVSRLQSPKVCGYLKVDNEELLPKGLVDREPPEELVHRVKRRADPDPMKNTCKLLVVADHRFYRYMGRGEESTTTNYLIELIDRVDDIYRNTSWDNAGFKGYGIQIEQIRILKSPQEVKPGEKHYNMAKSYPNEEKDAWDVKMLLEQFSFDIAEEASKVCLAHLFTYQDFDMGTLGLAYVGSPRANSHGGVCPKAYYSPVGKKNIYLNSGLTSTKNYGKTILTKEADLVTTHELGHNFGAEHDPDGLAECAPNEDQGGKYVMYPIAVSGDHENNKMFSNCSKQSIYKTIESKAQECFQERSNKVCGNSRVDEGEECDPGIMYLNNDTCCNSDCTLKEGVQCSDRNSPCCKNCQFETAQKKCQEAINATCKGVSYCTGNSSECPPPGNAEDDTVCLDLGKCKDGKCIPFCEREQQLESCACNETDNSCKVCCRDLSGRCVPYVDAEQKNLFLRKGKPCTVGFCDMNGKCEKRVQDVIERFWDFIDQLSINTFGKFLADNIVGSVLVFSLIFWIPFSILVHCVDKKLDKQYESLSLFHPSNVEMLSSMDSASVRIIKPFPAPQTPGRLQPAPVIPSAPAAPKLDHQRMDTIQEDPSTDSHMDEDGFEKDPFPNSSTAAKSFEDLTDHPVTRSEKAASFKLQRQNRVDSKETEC

Which IC50 [1] does the source give for `Cc1sc2c(=O)n3c(nc2c1C(=O)NC1CCCCC1)CCCCC3` here?
Its IC50 is > 109 µM (inactive).

What about the IC50 [2] of the same compound?
Its IC50 is > 83.3 µM (inactive).

With `O=[N+]([O-])c1ccc(N(c2ccccc2)c2ccccc2)cc1` as the compound, how does the IC50 [3] read?
Its IC50 is 10.8 µM (active).

And the IC50 [4]?
The IC50 was > 49.7 µM (inactive).

And the EC50 [5]?
The EC50 was 24.3 µM (active).

With `CCCOc1ccc(C2=CSC3=NCCN23)cc1Cl` as the compound, how does the EC50 [6] read?
The EC50 was > 50 µM (active).

With `CCOC(=O)CN1C2=NCCN2c2ccccc21` as the compound, how does the IC50 [1] read?
The IC50 was > 109 µM (inactive).

And the IC50 [2]?
Its IC50 is > 83.4 µM (inactive).

Which CC50 [7] does the source give for `CCOC(=O)c1sc(NC(=O)CN2C(=O)NC3(CC(C)CC(C)(C)C3)C2=O)cc1C` (stereo unspecified) here?
Its CC50 is 14.9 µM (active).

What about the EC50 [8] of the same compound?
The EC50 was 2.17 µM (active).

And the CC50 [9]?
The CC50 was 30.6 µM (active).

What about the EC50 [10] of the same compound?
Its EC50 is 9.25 µM (active).

What about the IC50 [11] of the same compound?
The IC50 was > 69.5 µM (inactive).

And the IC50 [12]?
Its IC50 is 10.6 µM (inactive).

What does the source list for `COc1ccc(C(=O)C[n+]2cc(-c3ccc(OC)cc3)n3c2CCCC3)cc1`?
EC50 [8]: 0.243 µM (active); EC50 [10]: > 60 µM (not active); IC50 [1]: > 109 µM (inactive); IC50 [2]: > 83.3 µM (inactive)

For `Cn1cc([N+](=O)[O-])c(C(=O)Nc2ccc3c(c2)OCCO3)n1`, which IC50 [3] is on record?
The IC50 was > 100 µM (not active).

With `CNS(=O)(=O)c1cccc(C(=O)OCc2cc(=O)oc3c(C)c(O)ccc23)c1` as the compound, how does the EC50 [6] read?
The EC50 was > 50 µM (active).

Which IC50 [3] does the source give for `CSc1ccccc1/N=C/c1nc(-c2ccccc2)oc1O` here?
Its IC50 is 37.6 µM (active).
